Experimental data: patent publication US9150632B2 (Indiana University Research and Technology Corporation, priority 2009, dated 2015)
Where two headings read alike, the source gives them in different places. Positions of bridges follow the written chain, without caps; N, C: chain ends. Residues, ends and D or L forms follow the SMILES beside them.

How the values were obtained:
[1] = biological target: T1, glucagon receptor (Homo sapiens, UniProt P47871); assay: Functional assay-cAMP synthesis, luciferase reporter in HEK293 cells, glucagon receptor; assay type: cell-based; set-up: % activity: concentration or dose not given beside the values; conditions: for % Activity of Glucagon: Table 21, relative to the native peptide; for Glucagon Receptor Relative Potency: Table 11
T1 construct: expressed in transfected cells; host or cells: HEK293

[2] = biological target: GLP-1 receptor (Homo sapiens, UniProt P43220); conditions: for % Activity of GLP-1: Table 21, relative to the native peptide; for GLP-1 Receptor Relative Potency: Table 11
Description: Peptide absorbance readings were obtained from UV Absorbance measurements at 280 nm on a Genesys 6 Spectrophotometer (Thermo Electron Corporation). Beer's Law was used to calculate solution concentrations based on the number of tryptophan and tyrosine residues in each analog. At the end of the incubation, 100 μL LucLite luminescence substrate reagent was added to each well, the plate sealed and shaken, and placed into a Wallac Trilux luminescence counter for cAMP detection.
HEK293 cells were co-transfected with the GcgR or GLP-1R cDNAs and a luciferase reporter gene-linked to a cAMP response element (CRE). […] The plate was incubated for 10 min in the dark and light output was quantified on a MicroBeta1450 liquid scintillation counter (Perkin-Elmer, Wellesley, Mass.).

[3] = Table 18, relative to the native hormone of the indicated receptor

T1 sequence (P47871 26-477): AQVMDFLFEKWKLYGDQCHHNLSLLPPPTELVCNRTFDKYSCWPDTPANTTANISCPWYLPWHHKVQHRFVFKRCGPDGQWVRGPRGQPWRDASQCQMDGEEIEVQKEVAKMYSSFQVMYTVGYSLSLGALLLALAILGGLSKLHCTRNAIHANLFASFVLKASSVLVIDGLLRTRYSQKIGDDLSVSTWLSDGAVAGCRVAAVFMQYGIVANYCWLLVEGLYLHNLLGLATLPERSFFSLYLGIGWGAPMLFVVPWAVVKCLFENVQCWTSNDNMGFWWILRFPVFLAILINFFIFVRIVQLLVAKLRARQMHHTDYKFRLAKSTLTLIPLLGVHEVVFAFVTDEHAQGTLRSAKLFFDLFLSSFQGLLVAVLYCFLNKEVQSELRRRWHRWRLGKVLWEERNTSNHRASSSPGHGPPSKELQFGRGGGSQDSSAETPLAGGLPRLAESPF
Chain of GLP-1 receptor (P43220 24-463, species assumed): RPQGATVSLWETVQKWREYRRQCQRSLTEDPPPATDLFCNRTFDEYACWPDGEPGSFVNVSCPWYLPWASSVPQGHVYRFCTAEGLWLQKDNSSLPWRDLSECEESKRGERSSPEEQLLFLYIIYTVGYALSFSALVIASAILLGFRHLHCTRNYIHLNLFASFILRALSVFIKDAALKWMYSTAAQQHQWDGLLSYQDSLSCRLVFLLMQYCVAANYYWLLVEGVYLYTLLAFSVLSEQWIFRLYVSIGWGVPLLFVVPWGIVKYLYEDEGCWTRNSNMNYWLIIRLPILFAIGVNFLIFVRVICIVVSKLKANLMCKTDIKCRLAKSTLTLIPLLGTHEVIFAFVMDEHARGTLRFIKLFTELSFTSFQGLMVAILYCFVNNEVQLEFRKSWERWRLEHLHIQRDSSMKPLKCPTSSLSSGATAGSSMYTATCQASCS

Structure (SMILES) | % Activity of Glucagon [1] | % Activity of GLP-1 [2] | GLP-1 Receptor Relative Potency [2] | other results
CCCCCCCCCCCCCC(=O)NCCCC[C@H](NC(=O)[C@H](CC(=O)O)NC(=O)[C@H](CO)NC(=O)[C@@H](NC(=O)[C@H](Cc1ccccc1)NC(=O)[C@@H](NC(=O)CNC(=O)[C@H](CCC(N)=O)NC(=O)C(C)(C)NC(=O)[C@@H](N)Cc1c[nH]cn1)[C@@H](C)O)[C@@H](C)O)C(=O)N[C@@H](CO)C(=O)N[C@@H](CCCCN)C(=O)N[C@@H](Cc1ccc(O)cc1)C(=O)N[C@@H](CC(C)C)C(=O)N[C@@H](CC(=O)O)C(=O)NC(C)(C)C(=O)N[C@@H](CCCNC(=N)N)C(=O)N[C@@H](CCCNC(=N)N)C(=O)N[C@@H](C)C(=O)N[C@@H](CCC(N)=O)C(=O)N[C@@H](CC(=O)O)C(=O)N[C@@H](Cc1ccccc1)C(=O)N[C@H](C(=O)N[C@@H](CCC(N)=O)C(=O)N[C@@H](Cc1c[nH]c2ccccc12)C(=O)N[C@@H](CC(C)C)C(=O)N[C@@H](CCSC)C(=O)N[C@@H](CC(N)=O)C(=O)N[C@H](C(N)=O)[C@@H](C)O)C(C)C [AIB2, AIB16, K10(C14) Gluc Amide] | 77.3% | 33.3% | – | –
CCCCCCCCCCCCCCCC(=O)NCCCC[C@H](NC(=O)[C@H](CC(=O)O)NC(=O)[C@H](CO)NC(=O)[C@@H](NC(=O)[C@H](Cc1ccccc1)NC(=O)[C@@H](NC(=O)CNC(=O)[C@H](CCC(N)=O)NC(=O)C(C)(C)NC(=O)[C@@H](N)Cc1c[nH]cn1)[C@@H](C)O)[C@@H](C)O)C(=O)N[C@@H](CO)C(=O)N[C@@H](CCCCN)C(=O)N[C@@H](Cc1ccc(O)cc1)C(=O)N[C@@H](CC(C)C)C(=O)N[C@@H](CC(=O)O)C(=O)NC(C)(C)C(=O)N[C@@H](CCCNC(=N)N)C(=O)N[C@@H](CCCNC(=N)N)C(=O)N[C@@H](C)C(=O)N[C@@H](CCC(N)=O)C(=O)N[C@@H](CC(=O)O)C(=O)N[C@@H](Cc1ccccc1)C(=O)N[C@H](C(=O)N[C@@H](CCC(N)=O)C(=O)N[C@@H](Cc1c[nH]c2ccccc12)C(=O)N[C@@H](CC(C)C)C(=O)N[C@@H](CCSC)C(=O)N[C@@H](CC(N)=O)C(=O)N[C@H](C(N)=O)[C@@H](C)O)C(C)C [AIB2, AIB16, K10(C16) Gluc Amide] | 170% | 72.3% | – | –
CCCCCCCCCCCCCCCCCC(=O)NCCCC[C@H](NC(=O)[C@H](CC(=O)O)NC(=O)[C@H](CO)NC(=O)[C@@H](NC(=O)[C@H](Cc1ccccc1)NC(=O)[C@@H](NC(=O)CNC(=O)[C@H](CCC(N)=O)NC(=O)C(C)(C)NC(=O)[C@@H](N)Cc1c[nH]cn1)[C@@H](C)O)[C@@H](C)O)C(=O)N[C@@H](CO)C(=O)N[C@@H](CCCCN)C(=O)N[C@@H](Cc1ccc(O)cc1)C(=O)N[C@@H](CC(C)C)C(=O)N[C@@H](CC(=O)O)C(=O)NC(C)(C)C(=O)N[C@@H](CCCNC(=N)N)C(=O)N[C@@H](CCCNC(=N)N)C(=O)N[C@@H](C)C(=O)N[C@@H](CCC(N)=O)C(=O)N[C@@H](CC(=O)O)C(=O)N[C@@H](Cc1ccccc1)C(=O)N[C@H](C(=O)N[C@@H](CCC(N)=O)C(=O)N[C@@H](Cc1c[nH]c2ccccc12)C(=O)N[C@@H](CC(C)C)C(=O)N[C@@H](CCSC)C(=O)N[C@@H](CC(N)=O)C(=O)N[C@H](C(N)=O)[C@@H](C)O)C(C)C [AIB2, AIB16, K10(C18) Gluc Amide] | 212.5% | 88.9% | – | –
CSCC[C@H](NC(=O)[C@H](CC(C)C)NC(=O)[C@H](Cc1c[nH]c2ccccc12)NC(=O)[C@H](CCC(N)=O)NC(=O)[C@@H](NC(=O)[C@H](Cc1ccccc1)NC(=O)[C@H](CC(=O)O)NC(=O)[C@H](CCCCN)NC(=O)[C@H](C)NC(=O)[C@H](CCCNC(=N)N)NC(=O)[C@H](CCCNC(=N)N)NC(=O)[C@H](CCC(=O)O)NC(=O)[C@H](CC(=O)O)NC(=O)[C@H](CC(C)C)NC(=O)[C@H](Cc1ccc(O)cc1)NC(=O)[C@H](CCCCN)NC(=O)[C@H](CO)NC(=O)[C@H](Cc1ccc(O)cc1)NC(=O)[C@H](CC(=O)O)NC(=O)[C@H](CO)NC(=O)[C@@H](NC(=O)[C@H](Cc1ccccc1)NC(=O)[C@@H](NC(=O)CNC(=O)[C@H](CCC(N)=O)NC(=O)[C@H](CO)NC(=O)[C@@H](N)Cc1c[nH]cn1)[C@@H](C)O)[C@@H](C)O)C(C)C)C(=O)N[C@@H](CC(N)=O)C(=O)N[C@H](C(N)=O)[C@@H](C)O [E16, K20 Gluc-NH2] | – | – | – | Percent Potency Relative to Native Ligand GRec ([1]; Table 5): 130.1%; Percent Potency Relative to Native Ligand GRec ([1]; Table 9): 130.1%; Percent Potency Relative to Native Ligand GLP-1Rec ([2]; Table 5): 41.5%; Percent Potency Relative to Native Ligand GLP-1Rec ([2]; Table 9): 41.5%
CC[C@H](C)[C@H](NC(=O)[C@H](Cc1ccccc1)NC(=O)[C@H](CCC(=O)O)NC(=O)[C@H](CCCCN)NC(=O)[C@H](C)NC(=O)[C@H](C)NC(=O)[C@H](CCC(N)=O)NC(=O)CNC(=O)[C@H](CCC(=O)O)NC(=O)[C@H](CC(C)C)NC(=O)[C@H](Cc1ccc(O)cc1)NC(=O)[C@H](CO)NC(=O)[C@H](CO)NC(=O)[C@@H](NC(=O)[C@H](CC(=O)O)NC(=O)[C@H](CO)NC(=O)[C@@H](NC(=O)[C@H](Cc1ccccc1)NC(=O)[C@@H](NC(=O)CNC(=O)[C@H](CCC(=O)O)NC(=O)[C@H](C)NC(=O)[C@@H](N)Cc1c[nH]cn1)[C@@H](C)O)[C@@H](C)O)C(C)C)C(=O)N[C@@H](C)C(=O)N[C@@H](Cc1c[nH]c2ccccc12)C(=O)N[C@@H](CC(C)C)C(=O)N[C@H](C(=O)N[C@@H](CCCCN)C(=O)NCC(=O)NCC(N)=O)C(C)C [GLP-1-VKGG^30 (SEQ ID NO: 527), HAEGTFTSDVSSYLEGQAAKEFIAW LVKGGa, reference compound] | – | – | 100% | –
CSCC[C@H](NC(=O)[C@H](CC(C)C)NC(=O)[C@H](Cc1c[nH]c2ccccc12)NC(=O)[C@H](CCC(N)=O)NC(=O)[C@@H](NC(=O)[C@H](Cc1ccccc1)NC(=O)[C@H](CC(=O)O)NC(=O)[C@H](CCC(N)=O)NC(=O)[C@H](C)NC(=O)[C@H](CCCNC(=N)N)NC(=O)[C@H](CCCNC(=N)N)NC(=O)[C@H](CO)NC(=O)[C@H](CC(=O)O)NC(=O)[C@H](CC(C)C)NC(=O)[C@H](Cc1ccc(O)cc1)NC(=O)[C@H](CCCCN)NC(=O)[C@H](CO)NC(=O)[C@H](Cc1ccc(O)cc1)NC(=O)[C@H](CC(=O)O)NC(=O)[C@H](CO)NC(=O)[C@@H](NC(=O)[C@H](Cc1ccccc1)NC(=O)[C@@H](NC(=O)CNC(=O)[C@H](CCC(N)=O)NC(=O)[C@H](CO)NC(=O)[C@@H](N)Cc1c[nH]cn1)[C@@H](C)O)[C@@H](C)O)C(C)C)C(=O)N[C@@H](CCCCN)C(=O)NCC(=O)NCC(=O)N1CCC[C@H]1C(=O)N[C@@H](CO)C(=O)N[C@@H](CO)C(=O)NCC(=O)N[C@@H](C)C(=O)N1CCC[C@H]1C(=O)N1CCC[C@H]1C(=O)N1CCC[C@H]1C(=O)N[C@@H](CO)C(N)=O [MKGG^30 PSSGAPPPS (SEQ ID NO: 523)] | – | – | 3% | Glucagon Receptor Relative Potency [1]: 14%
CSCC[C@H](NC(=O)[C@H](CC(C)C)NC(=O)[C@H](Cc1c[nH]c2ccccc12)NC(=O)[C@H](CCC(N)=O)NC(=O)[C@@H](NC(=O)[C@H](Cc1ccccc1)NC(=O)[C@H](CC(=O)O)NC(=O)[C@H](CCC(N)=O)NC(=O)[C@H](C)NC(=O)[C@H](CCCNC(=N)N)NC(=O)[C@H](CCCNC(=N)N)NC(=O)[C@H](CO)NC(=O)[C@H](CC(=O)O)NC(=O)[C@H](CC(C)C)NC(=O)[C@H](Cc1ccc(O)cc1)NC(=O)[C@H](CCCCN)NC(=O)[C@H](CO)NC(=O)[C@H](Cc1ccc(O)cc1)NC(=O)[C@H](CC(=O)O)NC(=O)[C@H](CO)NC(=O)[C@@H](NC(=O)[C@H](Cc1ccccc1)NC(=O)[C@@H](NC(=O)CNC(=O)[C@H](CCC(N)=O)NC(=O)[C@H](CO)NC(=O)[C@@H](N)Cc1c[nH]cn1)[C@@H](C)O)[C@@H](C)O)C(C)C)C(=O)N[C@@H](CC(N)=O)C(=O)NCC(=O)NCC(=O)N1CCC[C@H]1C(=O)N[C@@H](CO)C(=O)N[C@@H](CO)C(=O)NCC(=O)N[C@@H](C)C(=O)N1CCC[C@H]1C(=O)N1CCC[C@H]1C(=O)N1CCC[C@H]1C(=O)N[C@@H](CO)C(N)=O [MNGG^30 PSSGAPPPS (SEQ ID NO: 522)] | – | – | 8% | Glucagon Receptor Relative Potency [1]: 30%
CSCC[C@H](NC(=O)[C@H](CC(C)C)NC(=O)[C@H](Cc1c[nH]c2ccccc12)NC(=O)[C@H](CC(N)=O)NC(=O)[C@@H](NC(=O)[C@H](Cc1ccccc1)NC(=O)[C@H](CCC(=O)O)NC(=O)[C@@H]1CCCCNC(=O)CC[C@H](NC(=O)[C@H](CC(=O)O)NC(=O)[C@H](CC(C)C)NC(=O)[C@H](Cc2ccc(O)cc2)NC(=O)[C@H](CCCCN)NC(=O)[C@H](CO)NC(=O)[C@H](Cc2ccc(O)cc2)NC(=O)[C@H](CC(=O)O)NC(=O)[C@H](CO)NC(=O)[C@@H](NC(=O)[C@H](Cc2ccccc2)NC(=O)[C@@H](NC(=O)CNC(=O)[C@H](CCC(N)=O)NC(=O)[C@H](CO)NC(=O)[C@@H](N)Cc2ccc(O)cc2)[C@@H](C)O)[C@@H](C)O)C(=O)N[C@@H](CCC(N)=O)C(=O)N[C@@H](C)C(=O)N[C@@H](C)C(=O)N1)C(C)C)C(=O)N[C@@H](CC(N)=O)C(=O)NCC(=O)NCC(=O)N1CCC[C@H]1C(=O)N[C@@H](CO)C(=O)N[C@@H](CO)C(=O)NCC(=O)N[C@@H](C)C(=O)N1CCC[C@H]1C(=O)N1CCC[C@H]1C(=O)N1CCC[C@H]1C(=O)N[C@@H](CO)C(N)=O [SEQ ID NO: 555] (H-YSQGTFTSDYSKYLDEQAAKEFVNWLMNGGPSSGAPPPS-NH2; lactam 16-20; N-terminus assumed) | – | – | – | Relative Activity, Glucagon receptor [1, 3]: 343.18%; Relative Activity, GLP-1 receptor [2, 3]: 100.00%
CSCC[C@H](NC(=O)[C@H](CC(C)C)NC(=O)[C@H](Cc1c[nH]c2ccccc12)NC(=O)[C@H](C)NC(=O)[C@@H](NC(=O)[C@H](Cc1ccccc1)NC(=O)[C@H](CC(=O)O)NC(=O)[C@H](C)NC(=O)[C@H](C)NC(=O)[C@H](CCCNC(=N)N)NC(=O)[C@H](CCCNC(=N)N)NC(=O)C(C)(C)NC(=O)[C@H](CC(=O)O)NC(=O)[C@H](CC(C)C)NC(=O)[C@H](Cc1ccc(O)cc1)NC(=O)[C@H](CCCCN)NC(=O)[C@H](CO)NC(=O)[C@H](Cc1ccc(O)cc1)NC(=O)[C@H](CC(=O)O)NC(=O)[C@H](CO)NC(=O)[C@@H](NC(=O)[C@H](Cc1ccccc1)NC(=O)[C@@H](NC(=O)CNC(=O)[C@H](CCNC(C)=O)NC(=O)[C@H](CO)NC(=O)[C@@H](N)Cc1c[nH]cn1)[C@@H](C)O)[C@@H](C)O)C(C)C)C(=O)N[C@@H](CC(=O)O)C(=O)N[C@@H](CCC(=O)O)C(=O)O [SEQ ID NO: 601] | – | – | – | % activity ([1]; Table 26, glucagon receptor): 86%
